Reference: the supplement of paper PMC13380429

What was measured:
Settings in all cases: 72 h
HepG2 [1] = experiment: relative viability EC50 (midpoint between 100% and the lowest measured viability); higher = less toxic
U2OS [2] = experiment: as above
Vero E6 [3] = experiment: as above
Caco-2 [4] = experiment: as above
HepG2 [5] = experiment: drug sensitivity score (DSS) for viability; higher = more toxic; extreme values may be limits of the assay
U2OS [6] = experiment: as above
Vero E6 [7] = experiment: as above
Caco-2 [8] = experiment: as above
HepG2 [9] = experiment: cell viability relative to DMSO; higher = less toxic
U2OS [10] = experiment: as above
Vero E6 [11] = experiment: as above
Caco-2 [12] = experiment: as above
Calu-3 [13] = experiment: drug sensitivity score (DSS) for viability; higher = more toxic; extreme values may be limits of the assay
Calu-3 [14] = experiment: cell viability relative to DMSO; higher = less toxic
Calu-3 [15] = experiment: relative viability EC50 (midpoint between 100% and the lowest measured viability); higher = less toxic

| SMILES | relative viability EC50 (HepG2 [1]) [µM] | relative viability EC50 (U2OS [2]) [µM] | relative viability EC50 (Vero E6 [3]) [µM] | relative viability EC50 (Caco-2 [4]) [µM] | drug sensitivity score (HepG2 [5]) | drug sensitivity score (U2OS [6]) | drug sensitivity score (Vero E6 [7]) | drug sensitivity score (Caco-2 [8]) | cell viability (HepG2 [9]; 1 nM) [%] | cell viability (HepG2 [9]; 10 nM) [%] | cell viability (HepG2 [9]; 100 nM) [%] | cell viability (HepG2 [9]; 1000 nM) [%] | cell viability (HepG2 [9]; 10000 nM) [%] | cell viability (U2OS [10]; 1 nM) [%] | cell viability (U2OS [10]; 10 nM) [%] | cell viability (U2OS [10]; 100 nM) [%] | cell viability (U2OS [10]; 1000 nM) [%] | cell viability (U2OS [10]; 10000 nM) [%] | cell viability (Vero E6 [11]; 1 nM) [%] | cell viability (Vero E6 [11]; 10 nM) [%] | cell viability (Vero E6 [11]; 100 nM) [%] | cell viability (Vero E6 [11]; 1000 nM) [%] | cell viability (Vero E6 [11]; 10000 nM) [%] | cell viability (Caco-2 [12]; 1 nM) [%] | cell viability (Caco-2 [12]; 10 nM) [%] | cell viability (Caco-2 [12]; 100 nM) [%] | cell viability (Caco-2 [12]; 1000 nM) [%] | cell viability (Caco-2 [12]; 10000 nM) [%] | drug sensitivity score (Calu-3 [13]) | cell viability (Calu-3 [14]; 1 nM) [%] | cell viability (Calu-3 [14]; 10 nM) [%] | cell viability (Calu-3 [14]; 100 nM) [%] | cell viability (Calu-3 [14]; 1000 nM) [%] | cell viability (Calu-3 [14]; 10000 nM) [%] | relative viability EC50 (Calu-3 [15]) [µM] |
| --- | --- | --- | --- | --- | --- | --- | --- | --- | --- | --- | --- | --- | --- | --- | --- | --- | --- | --- | --- | --- | --- | --- | --- | --- | --- | --- | --- | --- | --- | --- | --- | --- | --- | --- | --- |
| CN1CCN(c2cc(-c3ccccc3)nc(N)n2)CC1 | > 10 | > 10 | > 10 | > 10 | 0 | 0 | 0 | 0 | 87.5 | 105 | 87.8 | 95.6 | 116 | 96.8 | 98.3 | 97.6 | 98 | 102 | 98.9 | 95.4 | 90.5 | 94.8 | 103 | 92.8 | 99 | 95.1 | 91.8 | 93 |  |  |  |  |  |  |  |
| COc1ccc2nc3ccc(Cl)cc3c(SCCCN)c2c1 | > 10 | > 10 | > 10 | > 10 | 0 | 0 | 0 | 0 | 98.6 | 106 | 98.8 | 106 | 101 | 98.8 | 101 | 98.4 | 104 | 98.8 | 99.7 | 93.7 | 93.4 | 93.2 | 109 | 94.9 | 99.7 | 93.9 | 93.5 | 99.2 |  |  |  |  |  |  |  |
| Cc1ccc2nc(NCCN)c3ncc(C)n3c2c1 | 1.69 | 3.04 | 1.86 |  | 8.6 | 4.1 | 4.6 | 1.4 | 111 | 100 | 86.6 | 79.6 | 3.6 | 95.2 | 96.1 | 94.6 | 98.7 | 28.4 | 102 | 92.6 | 94.5 | 90.3 | 44 | 95.8 | 95.9 | 95.8 | 102 | 66 | 1.2 | 91.9 | 93 | 89.4 | 102 | 70.2 |  |
| OCCCNc1cc(-c2ccnc(Nc3cccc(Cl)c3)n2)ccn1 | 0.266 | 0.237 | 0.178 | 0.223 | 17.9 | 18.5 | 20.1 | 14.9 | 93.6 | 111 | 93 | 7.7 | 5.6 | 101 | 95 | 90.9 | 5.8 | 13 | 94.5 | 108 | 81.9 | 5.3 | 15.6 | 95.9 | 97.1 | 91.6 | 26.1 | 31.8 |  |  |  |  |  |  |  |
| N=C(N)NC(=N)Nc1ccccc1 [1-phenylbiguanide] | > 10 | > 10 | > 10 | > 10 | 0 | 0 | 0 | 0 | 97.3 | 106 | 103 | 109 | 101 | 99.3 | 97.7 | 103 | 101 | 100 | 100 | 93.4 | 94.8 | 99.4 | 101 | 96.3 | 94.8 | 95.5 | 92.4 | 98.8 |  |  |  |  |  |  |  |
| Brc1c(Br)c(Br)c2[nH]nnc2c1Br [4,5,6,7-tetrabromobenzotriazole] | > 10 | > 10 | > 10 | > 10 | 0 | 0 | 0 | 0 | 117 | 93.9 | 102 | 93.3 | 107 | 97.2 | 98 | 97.9 | 100 | 99.2 | 105 | 103 | 101 | 99.4 | 103 | 93.8 | 107 | 90.4 | 95.7 | 99.2 |  |  |  |  |  |  |  |
| O=C(Cc1cccc(OC(F)(F)F)c1)Nc1ccc(CCCCc2nnc(NC(=O)Cc3ccccn3)s2)nn1 [CB-839] |  | > 10 |  | > 10 | 8.4 | 4.7 | 7.1 | 0 | 96.7 | 89.2 | 78.1 | 66.1 | 71.4 | 99.6 | 105 | 92.6 | 75.9 | 82 | 95.7 | 93.9 | 89.5 | 65.2 | 65.3 | 94.9 | 98.7 | 101 | 105 | 106 | 1.5 | 107 | 102 | 89.5 | 89.1 | 86.6 | > 10 |
| COc1cc2c(cc1OC(C)C)[C@H](c1ccc(Cl)cc1)N(c1ccc(N(C)C[C@H]3CC[C@H](N4CCN(C)C(=O)C4)CC3)cc1)C(=O)C2 [CGM097] | 1.31 | 2.36 | 1.45 | > 10 | 7.6 | 3.8 | 5 | 0.3 | 104 | 109 | 100 | 75.2 | 26.1 | 98.1 | 104 | 94.7 | 94.6 | 44.8 | 102 | 105 | 95.1 | 83.3 | 46.9 | 96.6 | 105 | 93.6 | 98.8 | 85.9 |  |  |  |  |  |  |  |
